Laboratory results as given in patent US20110183969A1, “ANTIFUNGAL COMBINATION THERAPY” (priority 2008, published 2011).
Values after ≈ are worked out from the molar mass of the structure shown.

Assays:
Test in all cases: MIC (YAG medium)
Assay type in all cases: cell-based
[1] = tested on: Aspergillus niger; conditions: YAG medium, MIC banded into grades; for MIC: Aspergillus niger, read-out: MIC A. niger (grade)
Procedure, shortened: (§1)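 Spores grown on Sabouraud agar and diluted in YAG medium (1% glucose, 1% ammonium chloride, 0.5% yeast extract) to final inocula of 1-2×10^4 cfu/mL over a 50-0.05 mg/L drug range. Read by OD485 after 24 hrs at 35° C. MIC (mg/L) is the lowest concentration inhibiting growth >70% versus drug-free control.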

[2] = tested on: Aspergillus terreus AT49; conditions: YAG medium, MIC banded into grades, AT49; for MIC: Aspergillus terreus, read-out: MIC A. terreus 49 (grade)
Procedure, shortened: as §1

[3] = tested on: Aspergillus fumigatus AF210; conditions: YAG medium, MIC banded into grades, AF210; for MIC: Aspergillus fumigatus, read-out: MIC A. fumigatus 210 (grade)
Procedure, shortened: as §1

[4] = tested on: Aspergillus flavus; conditions: YAG medium, MIC banded into grades; for MIC: Aspergillus flavus, read-out: MIC A. flavus (grade)
Procedure, shortened: as §1

[5] = tested on: Aspergillus terreus AT4; conditions: YAG medium, MIC banded into grades, AT4; for MIC: Aspergillus terreus, read-out: MIC A. terreus (grade)
Procedure, shortened: as §1

[6] = tested on: Aspergillus fumigatus AF293; conditions: YAG medium, MIC banded into grades, AF293; for MIC: Aspergillus fumigatus, read-out: MIC A. fumigatus (grade)
Procedure, shortened: as §1

Compound | MIC [1] [µg/mL] | MIC [2] [µg/mL] | MIC [3] [µg/mL] | MIC [4] [µg/mL] | MIC [5] [µg/mL] | MIC [6] [µg/mL] | MIC A. niger (grade) [1] | MIC A. terreus 49 (grade) [2] | MIC A. fumigatus 210 (grade) [3] | MIC A. flavus (grade) [4] | MIC A. terreus (grade) [5] | MIC A. fumigatus (grade) [6]
Cc1cc(C)nc(N(C)CCOc2ccc(NC(=O)C(=O)c3c(-c4ccccc4)cc4ccccn34)cc2)c1 [Example 64, N-(4-{2-[(4,6-Dimethyl-pyridin-2-yl)-methyl-amino]-ethoxy}-phenyl)-2-oxo-2-(2-phenyl-indolizin-3-yl)-acetamide] | < 1 | < 1 | < 1 | < 1 | < 1 | < 1 | – | – | – | – | – | –
CC(C)c1nccn1CCOC(=O)C(C)(C)c1ccc(NC(=O)C(=O)c2c(-c3ccccc3)cc3ccccn23)cc1 [Example 18, 2-methyl-2-{4-[2-oxo-2-(2-phenyl-indolizin-3-yl)-acetylamino]-phenyl}-propionic acid 2-(2-isopropyl-imidazol-1-yl)-ethyl ester] | > 10 | 1 to 10 (≈ 1.78 to 17.8 µM) | > 10 | > 10 | > 10 | > 10 | – | – | – | – | – | –
O=C(Nc1ccc(N2CCN(Cc3ccco3)CC2)cc1)C(=O)c1c(-c2ccccc2)cc2ccccn12 [Example 31, 4-[4-(2-Furan-2-yl-methyl-piperazin-yl)-phenyl]-2-oxo-2-(2-phenyl-indolizin-3-yl)-acetamide] | – | – | – | – | – | – | 3 (A grade of 3 represents an MIC of less than 1 mg/L) | 3 (A grade of 3 represents an MIC of less than 1 mg/L) | 3 (A grade of 3 represents an MIC of less than 1 mg/L) | 3 (A grade of 3 represents an MIC of less than 1 mg/L) | 3 (A grade of 3 represents an MIC of less than 1 mg/L) | 3 (A grade of 3 represents an MIC of less than 1 mg/L)
N-(4-{3-[(4,6-Dimethyl-pyridin-2-yl)-methyl-amino]-propyl}-phenyl)-2-oxo-2-(2-phenyl-indolizin-3-yl)-acetamide [Example 70] | – | – | – | – | – | – | 3 (A grade of 3 represents an MIC of less than 1 mg/L) | 3 (A grade of 3 represents an MIC of less than 1 mg/L) | 3 (A grade of 3 represents an MIC of less than 1 mg/L) | 3 (A grade of 3 represents an MIC of less than 1 mg/L) | 3 (A grade of 3 represents an MIC of less than 1 mg/L) | 3 (A grade of 3 represents an MIC of less than 1 mg/L)
O=C(Nc1ccc(N2CCS(=O)(=O)CC2)cc1)C(=O)c1c(-c2ccccc2)cc2ccccn12 [Example 1, N-[4-(1,1-Dioxo-1λ^6-thiomorpholin-4-yl)-phenyl]-2-oxo-2-(2-phenyl-indolizin-3-yl)-acetamide] | > 10 | > 10 | > 10 | 1 to 10 (≈ 2.11 to 21.1 µM) | 1 to 10 (≈ 2.11 to 21.1 µM) | > 10 | – | – | – | – | – | –
C=C(C)CN1CCN(c2ccc(NC(=O)C(=O)c3c(-c4ccc(N5CCOCC5)cc4)cc4ccccn34)cc2)CC1 [Example 40, N-{4-[4-(2-Methyl-allyl)-piperazin-1-yl]-phenyl}-2-[2-(4-morpholin-4-yl-phenyl)-indolizin-3-yl]-2-oxo-acetamide] | > 10 | > 10 | > 10 | 1 to 10 (≈ 1.77 to 17.7 µM) | > 10 | > 10 | – | – | – | – | – | –
C=C1CCN(c2ccc(NC(=O)C(=O)c3c(-c4cccnc4C)cc4ccccn34)cc2)CC1 [Example 46, N-[4-(4-Methylene-piperidin-1-yl)-phenyl]-2-[2-(2-methyl-pyridin-3-yl)-indolizin-3-yl]-2-oxo-acetamide] | < 1 | < 1 | < 1 | < 1 | < 1 | < 1 | – | – | – | – | – | –
Cc1cc(C)nc(NCCN(C)c2ccc(NC(=O)C(=O)c3c(-c4ccccc4)cc4ccccn34)cc2)c1 [Example 69, N-(4-{[2-(4,6-dimethyl-pyridin-2-ylamino)-ethyl]-methyl-amino}-phenyl)-2-oxo-2-(2-phenyl-indolizin-3-yl)-acetamide] | < 1 | < 1 | < 1 | < 1 | < 1 | < 1 | – | – | – | – | – | –
